The text below walks through data of patent US20230212191A1, “SPIRO-SULFONIMIDAMIDE DERIVATIVES AS INHIBITORS OF MYELOID CELL LEUKEMIA-1 (MCL-1) PROTEIN” (PRELUDE THERAPEUTICS, INCORPORATED, priority 2020, published 2023).

For one assay, the target named is T1, MCL-1 (Homo sapiens, UniProt Q07820).
T1 construct: purchased BPS Bioscience
As to the kind of experiment: Cell free Mcl-1:Bim affinity assay (fluorescence polarization competition). It counts as binding. To be noted: 15 nM MCL-1, 5 nM FITC-Bim tracer, 1 hour at room temperature; Ki calc. from IC50 by Nikolovska-Coleska's equation; read-out: BIM_ Ki. The method, then:
Cell Free Mcl-1:Bim Affinity Assay (Mcl-1 Bim)
The binding affinity of each compound was measured via a fluorescence polarization competition assay, in which the compound competes for the same binding site with the ligand, and thus leads to a dose-dependent anisotropy reduction. The tracer ligand utilized was a fluorescein isothiocyanate labelled peptide (FITC-[…]) derived from Bim (GenScript).
The assay was carried out in black half-area 96-well NBS plate (Corning), containing 15 nM of MCL-1 (BPS Bioscience), 5 nM of FITC-Bim and 3-fold serial diluted test compounds in a total volume of 50 μL of assay buffer (20 mM HEPES, 50 mM NaCl, 0.002% Tween 20, 1 mM TCEP, and 1% DMSO). The reaction plate was incubated for 1 hour at room temperature. The change of anisotropy is measured with an Envision multimode plate reader (PerkinElmer) at emission wavelength 535 nm. Fluorescence polarization was calc. in mP unit and the percentage inhibition was calc. by % inhibition=100×(mPDMSO−mP)/(mPDMSO−mPPC), in which mPDMSO is the DMSO control, and mPPC is the positive control. IC50 values were determined from a 10-point dose response curve by fitting the percent inhibition against compound concentration using the GraphPad Prism software. The inhibition constant Ki was subsequently calc. according to the Nikolovska-Coleska's equation (Anal. Biochem., 2004, 332, 261),
where [I]50 is the concentration of the free inhibitor at 50% inhibition, [L]50 is the concentration of the free labeled ligand at 50% inhibition, [P]0 is the concentration of the free protein at 0% inhibition, and Kd is the dissociation constant of the protein-ligand complex.

The subject of a further assay is H929 cells. Kind of assay: Cell viability assay (H929 10 FBS). In kind it is cell-based. To be noted: CellTiter-Glo or ATPlite, read-out: H929_10FBS IC50. The method, then: Cell Viability Assay (H929 10 FBS)
Dispense 10 μL aliquot of prepared H929 cells (1:1 ratio of cells:Trypan Blue (#1450013, Bio-Rad)) onto cell counting slide (#145-0011, Bio-Rad) and obtain cell density and cell viability using cell counter (TC20, Bio-Rad). Remove appropriate volume of resuspended cells from culture flask to accommodate 4000 cells/well @ 10 μL/well. Transfer H929 cells to 50 mL conical (#430290, Corning). Spin down at 1000 rpm for 5 min using tabletop centrifuge (SPINCHRON 15, Beckman). Discard supernatant and resuspend cell pellet in modified RPMI 1640 (#10-040-CV, Corning) cell culture media containing 10% FBS (F2422-500 ML, Sigma), sodium pyruvate (100 mM) (#25-000-CL, Corning), HEPES buffer (1 M) (#25-060-CL, Corning) and glucose (200 g/L) (A24940-01, Gibco) to a cell density of 400,000 cells/mL. Dispense 10 μL of resuspended H929 cells per well in 384-well small volume TC treated plate (#784080, Greiner Bio-one) using standard cassette (#50950372, Thermo Scientific) on Multi-drop Combi (#5840310, Thermo Scientific) in laminar flow cabinet. Dispense compounds onto plates using digital liquid dispenser (D300E, Tecan). Incubate plates in humidified tissue culture incubator @ 37° C. for 24 hours. Add 10 μL of prepared CellTiTer-Glo® detection buffer (G7570, Promega) or ATPlite 1Step detection reagent (#6016731, Perkin Elmer) to each well of 384-well plate using small tube cassette (#24073295, Thermo Scientific) on Combi multi drop, incubate @ RT for 30-60 min. Read plates with microplate reader (PheraStar, BMG Labtech) using 384 well luminescence mode.

Read-outs that look alike come from different tables or passages of the source.

T1 sequence (Q07820 whole entry): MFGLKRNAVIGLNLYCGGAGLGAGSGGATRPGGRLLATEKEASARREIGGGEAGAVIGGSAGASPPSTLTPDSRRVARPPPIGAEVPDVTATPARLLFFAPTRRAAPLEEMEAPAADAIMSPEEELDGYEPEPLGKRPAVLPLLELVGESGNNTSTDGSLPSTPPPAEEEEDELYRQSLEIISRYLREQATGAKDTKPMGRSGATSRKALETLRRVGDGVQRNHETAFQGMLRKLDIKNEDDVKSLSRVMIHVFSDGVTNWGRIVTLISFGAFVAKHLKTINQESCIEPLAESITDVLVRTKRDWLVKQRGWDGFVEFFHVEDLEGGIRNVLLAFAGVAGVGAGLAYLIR

In general, Ki refers to a dissociation constant, usually derived from enzyme kinetics or from competition with a known ligand. In general, IC50 refers to the midpoint of a concentration-inhibition curve. As for `CCNC(=O)NS1(=O)=NC(=O)C(C)(C)OC/C=C/[C@H](OC)[C@@H]2CC[C@H]2CN2C[C@@]3(CCCc4cc(Cl)ccc43)COc3ccc1cc32` (stereo partly drawn) [Example 20, 1-[(3R,6R,7S,8E,22S)-7′-Chloro-7-methoxy-12,12-dimethyl-13,15-dioxospiro[11,20-dioxa-15-thia-1,14-diazatetracyclo[14.7.2.03,6.019,24]pentacosa-8,14,16,18,24-pentaene-22,4′-2,3-dihydro-1H-naphthalene]-15-yl]-3-ethylurea], the Ki at MCL-1 was under 0.001 µM. In addition, the IC50 in the assay with H929 cells (Homo sapiens, NCI-H929, 24 h) is under 0.1 µM.
With `COC1CN(C(=O)NS2(=O)=NC(=O)C(C)(C)OCC=CC(OC)C3CCC3CN3CC4(CCCc5cc(Cl)ccc54)COc4ccc2cc43)C1` (stereo not shown) [32 or 31], on MCL-1, the Ki is under 0.001 µM. In addition, the IC50 with H929 cells (24 hours) was 0.1 to 0.5 µM.
For the compound `COc1nn(C)cc1C(=O)NS1(=O)=NC(=O)C(C)(C)OC/C=C/[C@H](OC)[C@@H]2CC[C@H]2CN2C[C@@]3(CCCc4cc(Cl)ccc43)COc3ccc1cc32` (stereo partly drawn) [Example 16, N-[(3R,6R,7S,8E,22S)-7′-Chloro-7-methoxy-12,12-dimethyl-13,15-dioxospiro[11,20-dioxa-15-thia-1,14-diazatetracyclo[14.7.2.03,6.019,24]pentacosa-8,14,16,18,24-pentaene-22,4′-2,3-dihydro-1H-naphthalene]-15-yl]-3-methoxy-1-methylpyrazole-4-carboxamide], at MCL-1, the inhibition constant (Ki) was under 0.001 µM. In addition, the IC50 in the assay with H929 cells (Homo sapiens, NCI-H929, 24 h) is under 0.1 µM.
With `CO[C@H]1/C=C/COC(C)(C)C(=O)N=S(=O)(NC(=O)c2cnn(C)c2)c2ccc3c(c2)N(C[C@@H]2CC[C@H]21)C[C@@]1(CCCc2cc(Cl)ccc21)CO3` (stereo partly drawn) [Example 15, N-[(3R,6R,7S,8E,22S)-7′-Chloro-7-methoxy-12,12-dimethyl-13,15-dioxospiro[11,20-dioxa-15-thia-1,14-diazatetracyclo[14.7.2.03,6.019,24]pentacosa-8,14,16,18,24-pentaene-22,4′-2,3-dihydro-1H-naphthalene]-15-yl]-1-methylpyrazole-4-carboxamide], the Ki on MCL-1 is under 0.001 µM. Moreover, the IC50 with H929 cells (Homo sapiens, NCI-H929, 24 h) is under 0.1 µM.
On the same counts, the results for `CO[C@H]1/C=C/COC(C)(C)C(=O)N=S(=O)(NC(=O)N2CC(N(C)C)C2)c2ccc3c(c2)N(C[C@@H]2CC[C@H]21)C[C@@]1(CCCc2cc(Cl)ccc21)CO3` (stereo partly drawn) [Example 33, N-[(3R,6R,7S,8E,22S)-7′-Chloro-7-methoxy-12,12-dimethyl-13,15-dioxospiro[11,20-dioxa-15-thia-1,14-diazatetracyclo[14.7.2.03,6.019,24]pentacosa-8,14,16,18,24-pentaene-22,4′-2,3-dihydro-1H-naphthalene]-15-yl]-3-(dimethylamino)azetidine-1-carboxamide] are under 0.001 µM and under 0.1 µM.
